Source: patent US10138212B2, “Aminoquinazoline compounds as A2A antagonist” (Merck Sharp & Dohme Corp., priority 2015, dated 2018)

Assays:
human A1 receptor = human A1 receptor (Homo sapiens (Human), UniProt P30542); test: A1 competition binding assay using Scintillation Proximity technology; selectivity = A1 binding Ki / A2a binding Ki; settings: A1 binding Ki divided by A2a binding Ki
Protocol: (§1) Binding affinities of compounds of the invention for the human A1 receptor were determined in a competition binding assay using Scintillation Proximity technology. Thus, 5 of membranes from CHO-K1 cells expressing the human A1 receptor were incubated with a compound of the invention at concentrations ranging from 3000 nM to 0.15 nM in a reaction mixture containing also 0.7 nM of a tritiated form of 8-Cyclopentyl-1,3-dipropylxanthine (the tritiated compound) and 25 μg of wheat germ agglutin-coated yttrium silicate SPA beads for one hour at room temperature with agitation. The beads were then allowed to settle to the bottom of the wells for 1 hr, after which the membrane-associated radioactivity was determined by scintillation counting in a TopCount microplate reader. Ki values were determined in a similar fashion described with A2a binding.
• Cells expressing the human, rat, dog or monkey adenosine 1 receptor (Purchased from Perkin-Elmer # ES-010-M400UA • [^3H]DPCPX (purchased from Perkin-Elmer NET-974, 8-cyclopentyl-1,3-dipropylxanthine, [dipropyl-2,3-^3H(N)]. • Wheatgerm agglutinin-coated yttrium silicate SPA beads (Purchased from GE Healthcare #RPNQ0023). Dilute to 25 mg/ml in assay buffer. Store at 4° C. • Assay Buffer—Dulbecco's phosphate buffered saline without calcium and without magnesium+10 mM MgCl2 • Adenosine deaminase from calf intestine, 10 mg/2 ml (Roche #10 102 105 001). • DMSO • DPCPX (A1 antagonist) from Tocris Bioscience Compound Dilution • Dilute compounds to 1 mM in 100% DMSO
Make serial dilutions as necessary (i.e., 1:10, 1:3) in 100% DMSO.
Dilute 1:20 into assay buffer (i.e. 3 ul into 57 ul buffer). This is a 5× solution in 5% DMSO.
• Dilute [^3H]DPCPX to 1.75 nM in assay buffer. This is a 2.5× solution. The final concentration in the assay is 0.7 nM. Calculate the concentration by counting two 5 ul aliquots. Membrane Preparation • Use 5 ug of membrane/well. Dilute membranes to 250 ug/ml in assay buffer. Treat with 20 ug/ml adenosine deaminase (ADA) for 15 minutes at room temperature to degrade endogenous adenosine. Membrane-Bead Mixture • Use 25 ug/well wheatgerm agglutinin-coated yttrium silicate SPA beads • Mix ADA-treated membranes and SPA beads together for 30 min prior to assay. Assay Assembly • Add in order to a Perkin-Elmer Optiplate-384: 10 ul of 5× compound, 20 ul of 2.5× [^3H]DPCPX, 20 ul membrane-bead mixture. Incubate for one hour at room temperature with agitation. • Include total binding (assay buffer+1% DMSO) and non-specific binding (DPCPX, 1 uM) wells. Counting and Calculations

human A2a receptor = human A2a receptor (Homo sapiens (Human), UniProt P29274); test: A2a competition binding assay using Scintillation Proximity technology
Protocol: as §1, with “human A2a” for “human A1”, “Thus, 1* μg, or preferably 0.25 μg” for “Thus, 5”, “from HEK293” for “from CHO-K1”, “also 0.5” for “also 0.7”, “of 5-amino-7-[2-phenethyl]-2-(furan-2-yl)-7H-pyrazolo[4,3-e][1,2,4]triazolo[1,5-c]pyrimidine” for “of 8-Cyclopentyl-1,3-dipropylxanthine”, “determined using the Cheng-Prusoff equation.” for “determined in a similar fashion described with A2a binding.”
HEK293 cells expressing the human, rat, dog or monkey adenosine 2a receptor (Purchased from Perkin-Elmer # RBHA2AM400UA).
The Tritiated compound was prepared in-house by MRL Radiochemistry according to published methods.
Wheat germ agglutinin-coated yttrium silicate SPA beads (GE Healthcare #RPNQ0023). Dilute to 25 mg/ml in assay buffer.
Assay Buffer was prepared in house: Dulbecco's calcium and magnesium free phosphate buffered saline+10 mM MgCl2
Adenosine deaminase from calf intestine, 10 mg/2 ml (Roche #10 102 105 001).
A2a antagonist standard (9-chloro-1-(2-furanyl)-[1,2,4]triazolo1,5-c]quinazolin-5-amine from Tocris Bioscience)
Make eight 1:3 serial dilutions in 100% DMSO from a 3 mM compound stock
Transfer 50 nl of compound into a 384-well OptiPlate (Perkin Elmer).
Typically, final concentrations of compound used in the assay ranged from 3000 nM to 0.152 nM.
Dilute a solution of the Tritiated compound to 1.25 nM in assay buffer. This is a 2.5× solution. The final concentration in the assay is 0.5 nM. Calculate the concentration by counting two 5 μl aliquots.
Use *1 ug or preferrably 0.25 ug of membrane/well. Dilute membranes to 9.7 μg/ml in assay buffer. Treat with 20 ug/ml adenosine deaminase (ADA) for 15 minutes at room temperature to degrade endogenous adenosine.
Use 25 μg/well wheat germ agglutinin-coated yttrium silicate SPA beads.
Mix ADA-treated membranes and SPA beads together for 30 min prior to assay.
To the Perkin-Elmer Optiplate-384 containing the compound titration add 20 μl of 2.5× solution of the Tritiated compound and 30 μl of the membrane-bead mixture. Incubate for one hour at room temperature with agitation.
Include total binding (assay buffer+1% DMSO) and non-specific binding (CGS15943, 1 μM) wells.
Allow the beads to settle for one hour.
A curve fitting program (i.e., Prism, Activity Base, Chemcart) is used to determine the EC50. The Ki value is calculated using the Cheng-Prusoff equation. Ki=EC50/(1+(radioligand concentration/Kd))
Using the foregoing assay method, the Ki results were obtained using the compounds of the invention described in Tables IIIa, IIIb, and IV. Each example compound tested is reported in the following format: Example number: A2a Ki reported in nM. Thus, for example, the compound Ex-1 was determined to have an Ki using the above-described assay and calculations, of 10.0 nM.

[1] = * assay run with 1 μg of membranes versus 0.25 μg, HEK293 cells expressing the human A2a receptor
[2] = 0.25 μg of membranes from HEK293 cells expressing the human A2a receptor

Chain of human A1 receptor (P30542 whole entry): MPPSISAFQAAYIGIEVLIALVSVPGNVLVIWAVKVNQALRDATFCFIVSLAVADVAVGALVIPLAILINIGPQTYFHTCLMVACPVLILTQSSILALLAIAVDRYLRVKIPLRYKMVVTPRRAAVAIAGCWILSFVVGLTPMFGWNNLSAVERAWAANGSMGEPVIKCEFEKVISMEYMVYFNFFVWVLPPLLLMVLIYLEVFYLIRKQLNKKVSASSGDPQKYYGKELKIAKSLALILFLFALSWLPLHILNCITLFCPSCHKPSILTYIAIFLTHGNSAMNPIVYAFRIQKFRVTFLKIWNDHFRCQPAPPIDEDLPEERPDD
Chain of human A2a receptor (P29274 whole entry): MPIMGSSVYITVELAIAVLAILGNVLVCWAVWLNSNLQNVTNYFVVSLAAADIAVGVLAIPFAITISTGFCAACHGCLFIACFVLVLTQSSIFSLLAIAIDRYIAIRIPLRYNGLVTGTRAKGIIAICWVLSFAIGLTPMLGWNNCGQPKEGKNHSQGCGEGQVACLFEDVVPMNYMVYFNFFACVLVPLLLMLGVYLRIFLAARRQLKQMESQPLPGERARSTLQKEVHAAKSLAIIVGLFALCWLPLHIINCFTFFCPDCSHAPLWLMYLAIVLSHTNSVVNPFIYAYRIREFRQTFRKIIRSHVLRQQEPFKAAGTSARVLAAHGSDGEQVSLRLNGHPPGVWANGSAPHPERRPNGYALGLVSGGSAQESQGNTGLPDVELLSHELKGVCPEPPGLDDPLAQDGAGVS

A2a selectivity (A2a A1 binding selectivity) (human A1 receptor) | Ki (human A2a receptor; [1]) [nM] | Ki (human A2a receptor; [2]) [nM] | Structure (SMILES)
42 | 2.5 |  | COc1cccc2c(C(=O)NCc3cccc(Cc4ccccc4)n3)nc(N)nc12 [Example 103, 2-amino-N-((6-benzylpyridin-2-yl)methyl)-8-methoxyquinazoline-4-carboxamide]
133 |  | 1.7 | Cc1ccc(F)c(CNC(=O)c2nc(N)nc3c(-c4ncco4)cccc23)n1 [Example 98, 2-amino-N-[(3-fluoro-6-methyl-2-pyridyl)methyl]-8-oxazol-2-yl-quinazoline-4-carboxamide]
28 | 1.3 |  | Nc1nc(C(=O)NCc2cccc(Cc3ccccc3F)n2)c2cccc(F)c2n1 [Example 111, 2-amino-8-fluoro-N-[[6-[(2-fluorophenyl)methyl]-2-pyridyl]methyl]quinazoline-4-carboxamide]
120 | 2.3 |  | [2H]C([2H])(NC(=O)c1nc(N)nc2c(OC)cccc12)c1cccc(C([2H])([2H])c2ccc(C(C)(C)OCOC)nc2)n1 [Example 109, 2-amino-N-[dideuterio-[6-[dideuterio-[6-[1-(methoxymethoxy)-1-methyl-ethyl]-3-pyridyl]methyl]-2-pyridyl]methyl]-8-methoxy-quinazoline-4-carboxamide]
77 | 2.1 |  | [2H]C([2H])(NC(=O)c1nc(N)nc2c(OC)cccc12)c1cccc(C([2H])([2H])c2cncc(-c3ncco3)c2)n1 [Example 108, 2-amino-N-[dideuterio-[6-[dideuterio-(5-oxazol-2-yl-3-pyridyl)methyl]-2-pyridyl]methyl]-8-methoxy-quinazoline-4-carboxamide]
93 | 5 |  | COc1cccc2c(C(=O)NCc3cccc(Cc4cccnc4)n3)nc(N)nc12 [Example 104, 2-amino-8-methoxy-N-((6-(pyridin-3-ylmethyl)pyridin-2-yl)methyl)quinazoline-4-carboxamide]

Continued, compound first:

Structure (SMILES) | A2a selectivity (A2a A1 binding selectivity) (human A1 receptor) | Ki (human A2a receptor; [1]) [nM] | Ki (human A2a receptor; [2]) [nM]
COc1cccc2c(C(=O)NCc3ncccn3)nc(N)nc12 [Example 38, 2-amino-8-methoxy-N-(pyrimidin-2-ylmethyl)quinazoline-4-carboxamide] | 94 |  | 43
Nc1nc(C(=O)NCc2cccc(COc3ccccn3)n2)c2cccc(F)c2n1 [Example 46, 2-amino-8-fluoro-N-[[6-(2-pyridyloxymethyl)-2-pyridyl]methyl]quinazoline-4-carboxamide] | 484 |  | 2.2
[2H]C([2H])(NC(=O)c1nc(N)nc2c(OC)cccc12)c1cccc(N2CCN(c3ccc(OCCOC)cc3)CC2)n1 [Example 60, 2-amino-N-[dideuterio-[6-[4-[4-(2-methoxyethoxy)phenyl]piperazin-1-yl]-2-pyridyl]methyl]-8-methoxy-quinazoline-4-carboxamide] | 67 | 4.3 | 
CC(C)c1nc(CNC(=O)c2nc(N)nc3c(F)cccc23)cs1 [Example 82, 2-amino-8-fluoro-N-[(2-isopropylthiazol-4-yl)methyl]quinazoline-4-carboxamide] | 56 |  | 0.6
CC(C)Oc1cccc(-c2cccc(CNC(=O)c3nc(N)nc4c(F)cccc34)n2)c1 [Example 66, 2-amino-8-fluoro-N-[[6-(3-isopropoxyphenyl)-2-pyridyl]methyl]quinazoline-4-carboxamide] | 3 | 3.8 | 
Nc1nc(C(=O)NCc2ccccc2-n2cccn2)c2cccc(F)c2n1 [Example 62, 2-amino-8-fluoro-N-[(2-pyrazol-1-ylphenyl)methyl]quinazoline-4-carboxamide] | 297 |  | 0.5
COc1cccc2c(C(=O)NCc3cccc(COc4ccccc4F)n3)nc(N)nc12 [Example 44, 2-amino-N-[[6-[(2-fluorophenoxy)methyl]-2-pyridyl]methyl]-8-methoxy-quinazoline-4-carboxamide] | 531 |  | 0.2
COc1cccc2c(C(=O)NC3CCc4ccccc4C3)nc(N)nc12 (stereo not shown) [Example 34, 2-amino-8-methoxy-N-[2-tetralin-2-yl]quinazoline-4-carboxamide] | 46 |  | 20
Nc1nc(C(=O)NCc2cccc3cccnc23)c2cccc(C(F)(F)F)c2n1 [Example 92, 2-amino-N-(8-quinolylmethyl)-8-(trifluoromethyl)quinazoline-4-carboxamide] | 560 |  | 2.3
COc1cccc2c(C(=O)NCc3cccc(C4CCC4)n3)nc(N)nc12 [Example 6, 2-amino-N-[(6-cyclobutyl-2-pyridyl)methyl]-8-methoxy-quinazoline-4-carboxamide] | 102 |  | 0.2
Cc1csc(-c2cccc(CNC(=O)c3nc(N)nc4c(F)cccc34)n2)n1 [Example 69, 2-amino-8-fluoro-N-[[6-(4-methylthiazol-2-yl)-2-pyridyl]methyl]quinazoline-4-carboxamide] | 63 |  | 4.2
COc1cccc2c(C(=O)NCc3cccc(-c4ccccn4)n3)nc(N)nc12 [Example 10, 2-amino-8-methoxy-N-[[6-(2-pyridyl)-2-pyridyl]methyl]quinazoline-4-carboxamide] | 113 |  | 1.2
COc1cccc2c(C(=O)NCc3ccccc3-c3ccccn3)nc(N)nc12 [Example 43, 2-amino-8-methoxy-N-[[2-(2-pyridyl)phenyl]methyl]quinazoline-4-carboxamide] | 84 | 2.3 | 
COc1cccc2c(C(=O)NCc3cccc(CN4CCOCC4)c3)nc(N)nc12 [Example 53, 2-amino-8-methoxy-N-[[3-(morpholinomethyl)phenyl]methyl]quinazoline-4-carboxamide] | 63 |  | 7.1
